Assay results taken from patent US20240018135A1, “COMPOUND HAVING INHIBITORY ACTIVITY AGAINST O-GLUSACASE AND USE THEREOF” (MEDIFRON DBT INC., priority 2020, published 2024).

What was measured:
[1] = target: Human OGA (recombinant hOGA protein) (Homo sapiens (Human), UniProt O60502); test: Human OGA enzyme activity assay (fluorescence, 4-Methylumbelliferyl N-acetyl-β-D-glucosaminide substrate); type: biochemical; conditions: for IC50: Table 1; for % of inhibition: Table 1, test concentration not given
Chain of Human OGA (recombinant hOGA protein) (O60502 whole entry): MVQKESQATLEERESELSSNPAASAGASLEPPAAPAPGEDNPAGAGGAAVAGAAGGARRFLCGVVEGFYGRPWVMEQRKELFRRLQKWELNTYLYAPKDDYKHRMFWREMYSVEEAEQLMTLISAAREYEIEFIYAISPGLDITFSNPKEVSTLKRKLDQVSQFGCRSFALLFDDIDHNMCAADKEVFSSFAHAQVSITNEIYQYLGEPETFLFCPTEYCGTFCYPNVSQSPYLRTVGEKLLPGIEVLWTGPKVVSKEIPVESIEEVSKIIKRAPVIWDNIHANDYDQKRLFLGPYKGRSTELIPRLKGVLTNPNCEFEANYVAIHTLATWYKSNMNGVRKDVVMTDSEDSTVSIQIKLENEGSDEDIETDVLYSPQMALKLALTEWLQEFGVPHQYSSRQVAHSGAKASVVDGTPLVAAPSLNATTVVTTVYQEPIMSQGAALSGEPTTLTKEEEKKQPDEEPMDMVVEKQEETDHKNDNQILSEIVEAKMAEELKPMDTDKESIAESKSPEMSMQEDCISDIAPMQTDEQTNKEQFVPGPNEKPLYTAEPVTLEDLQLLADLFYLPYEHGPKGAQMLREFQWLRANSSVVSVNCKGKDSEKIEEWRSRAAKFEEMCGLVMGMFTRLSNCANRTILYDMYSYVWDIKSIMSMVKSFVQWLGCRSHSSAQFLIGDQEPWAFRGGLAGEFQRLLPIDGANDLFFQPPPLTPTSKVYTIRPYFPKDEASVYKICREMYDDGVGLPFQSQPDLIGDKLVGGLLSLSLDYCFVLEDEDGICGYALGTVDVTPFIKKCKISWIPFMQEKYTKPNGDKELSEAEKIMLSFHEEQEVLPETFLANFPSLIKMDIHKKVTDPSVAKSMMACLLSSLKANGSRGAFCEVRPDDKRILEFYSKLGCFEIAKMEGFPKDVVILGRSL

Compound | melting point | IC50 [1] | % of inhibition [1]
COc1ccc(NC(=O)CN2CCN(Cc3cnc(NC(C)=O)s3)CC2)cc1 [Compound A-7, 2-(4-((2-acetamidothiazol-5-yl)methyl)piperazin-1-yl)-N-(4-methoxyphenyl)acetamide] | 217 to 220 °C | 840 nM | 84.2%
CC(=O)Nc1ncc(CN2CCN(CC(=O)Nc3ccc4nccnc4c3)CC2)s1 [Compound A-23, 2-(4-((2-acetamidothiazol-5-yl)methyl)piperazin-1 yl)-N-(quinoxalin-6-yl)acetamide] | 234 to 235 °C |  | 70.1%
CC(=O)Nc1ncc(CN2CCN(CC(=O)Nc3ccc(C)cn3)CC2)s1 [Compound A-17, 2-(4-((2-acetamidothiazol-5-yl)methyl)piperazin-1-yl)-N-(5-methylpyridin-2-yl) acetamide] | 224 to 230 °C |  | 64.3%
CC(=O)Nc1ncc(CN2CCN(CC(=O)NC3CCCCC3)CC2C)s1 (stereo not shown) [Compound A-35, 2-(4-((2-acetamidothiazol-5-yl)methyl)-3-methylpiperazin-1-yl)-N-cyclohexylacetamide] | 184 to 187 °C | 100 nM | 98.4%
CC(=O)Nc1ncc(CN2CCN(CC(=O)Nc3ccc4[nH]ccc4c3)CC2)s1 [Compound A-25, 2-(4-((2-acetamidothiazol-5-yl)methyl)piperazin-1-yl)-N-(1H-indol-5-yl)acetamide] | 216 to 219 °C |  | 59.2%
CC(=O)Nc1ncc(CN2CCN(CC(=O)Nc3ccc(F)cc3)CC2)s1 [Compound A-11, 2-(4-((2-acetamidothiazol-5-yl)methyl)piperazin-1-yl)-N-(4-fluorophenyl)acetamide] | 212 to 215 °C | 2610 nM | 85.7%
CC(=O)Nc1ncc(CN2CCN(CC(=O)Nc3ccc(Cc4ccccc4)cc3)CC2C)s1 (stereo not shown) [Compound A-39, 2-(4-((2-acetamidothiazol-5-yl)methyl)-3-methylpiperazin-1-yl)-N-(4-benzylphenyl)acetamide] | 193 to 195 °C | 60 nM | 98.8%
1-((2-acetamidothiazol-5-yl)methyl)-N-(p-tolyl)piperidine-4-carboxamide [Compound B-15] |  | 160 nM | 91.2%
CC(=O)Nc1ncc(CN2CCN(CC(=O)Nc3ccc(N4CCN(C(C)=O)CC4)cc3)CC2)s1 [Compound A-36, 2-(4-((2-acetamidothiazol-5 yl)methyl)piperazin-1-yl)-N-(4-(4-acetylpiperazin-1-yl)phenyl)acetamide] | 180 to 182 °C | 1040 nM | 96.2%
CC(=O)Nc1ncc(CN2CCN(CC(=O)Nc3cc(C)ccn3)CC2)s1 [Compound A-18, 2-(4-((2-acetamidothiazol-5-yl)methyl)piperazin-1-yl)-N-(4-methylpyridin-2-yl) acetamide] | 210 to 211 °C |  | 48.8%
CC(=O)Nc1ncc(CN2CCN(CC(=O)Nc3ccc(F)cc3)CC2C)s1 (stereo not shown) [Compound A-33, 2-(4-((2-acetamidothiazol-5-yl)methyl)-3-methylpiperazin-1-yl)-N-(4-fluorophenyl)acetamide] | 102 to 105 °C | 230 nM | 97.9%
COc1ccc(NC(=O)CN2CCN(Cc3cnc(NC(C)=O)s3)CC2)cc1OC [Compound A-10, 2-(4-((2-acetamidothiazol-5-yl)methyl)piperazin-1-yl)-N-(3,4-dimethoxyphenyl)acetamide] | 182 to 184 °C |  | 62.4%
CC(=O)Nc1ncc(CN2CCN(CC(=O)Nc3cnccn3)CC2)s1 [Compound A-19, 2-(4-((2-acetamidothiazol-5-yl)methyl)piperazin-1-yl)-N-(pyrazin-2-yl)acetamide] | 224 to 226 °C |  | 74.7%
CC(=O)Nc1ncc(CN2CCN(CC(=O)Nc3ccc(Cc4ccccc4)cc3)CC2)s1 [Compound A-38, 2-(4-((2-acetamidothiazol-5-yl)methyl)piperazin-1-yl)-N-(4-benzylphenyl)acetamide] | 132 to 134 °C | 370 nM | 90.8%
CC(=O)Nc1ncc(CN2CCN(CC(=O)Nc3ccc(Cl)cc3)CC2)s1 [Compound A-12] | 232 to 236 °C | 1990 nM | 81.6%
CC(=O)Nc1ncc(CN2CCN(CC(=O)Nc3ccc(Cl)cc3Br)CC2)s1 [Compound A-13, 2-(4-((2-acetamidothiazol-5-yl)methyl)piperazin-1-yl)-N-(2-bromo-4-chlorophenyl)acetamide] | 212 to 213 °C | 1700 nM | 85.2%
CC(=O)Nc1ncc(CN2CCN(CC(=O)Nc3ccccc3)CC2)s1 [Compound A-1, 2-(4-((2-acetamidothiazol-5-yl)methyl)piperazin-1-yl)-N-phenylacetamide] |  | 2600 nM | 78.3%
CC(=O)Nc1ncc(CN2CCN(CC(=O)Nc3ccccn3)CC2)s1 [Compound A-15, 2-(4-((2-acetamidothiazol-5-yl)methyl)piperazin-1-yl) N-(pyridin-2-yl)acetamide] |  |  | 90.9%
1-((2-acetamidothiazol-5-yl)methyl)-N-(4-fluorophenyl)piperidine-4-carboxamide [Compound B-14] |  | 300 nM | 89.0%
COc1ccc2nc(NC(=O)CN3CCN(Cc4cnc(NC(C)=O)s4)CC3)sc2c1 [Compound A-28, 2-(4-((2-acetamidothiazol-5-yl)methyl)piperazin-1-yl)-N-(6-methoxybenzo[d]thiazol-2-yl)acetamide] |  |  | 19.2%

Next, values leading:

melting point | IC50 [1] | % of inhibition [1] | Compound
232 to 236 °C | 230 nM | 97.0% | CC(=O)Nc1ncc(CN2CCC(=CC(=O)Nc3ccc(C(C)C)cc3)CC2)s1 [Compound C-4, 2-(1-((2-acetamidothiazol-5-yl)methyl)piperidin-4-ylidene)-N-(4-isopropylphenyl)acetamide]
189 to 191 °C | 170 nM | 97.1% | CC(=O)Nc1ncc(CN2CCC(=CC(=O)Nc3ccc(F)cc3)CC2)s1 [Compound C-2, 2-(1-((2-acetamidothiazol-5-yl)methyl)piperidin-4-ylidene)-N-(4-fluorophenyl)acetamide]
212 to 214 °C | 450 nM | 94.8% | COc1ccc(NC(=O)C=C2CCN(Cc3cnc(NC(C)=O)s3)CC2)cc1 [Compound C-5, 2-(1-((2-acetamidothiazol-5-yl)methyl)piperidin-4 ylidene)-N-(4-methoxyphenyl)acetamide]
257 to 258 °C | 680 nM | 91.8% | CC(=O)Nc1ncc(CN2CCC(C(=O)Nc3ccc(C(C)C)cc3)CC2)s1 [Compound B-3, 1-((2-acetamidothiazol-5-yl)methyl)-N-(4-isopropylphenyl)piperidine-4-carboxamide]
231 to 232 °C |  | 46.7% | CC(=O)Nc1ncc(CN2CCC(C(=O)NC3CCCCC3)CC2)s1 [Compound B-5, 1-((2-acetamidothiazol-5-yl)methyl)-N-cyclohexylpiperidine-4-carboxamide]
178 to 179 °C | 900 nM | 93.3% | CC(=O)Nc1ncc(CN2CCC(C(=O)NC(C)c3ccccc3)CC2)s1 (stereo not shown) [Compound B-10, 1-((2-acetamidothiazol-5-yl)methyl)-N-(1-phenylethyl)piperidine-4-carboxamide]
214 to 219 °C | 350 nM | 95.8% | COc1ccc(NC(=O)C=C2CCN(Cc3cnc(NC(C)=O)s3)CC2)cc1OC [Compound C-6, 2-(1-((2-acetamidothiazol-5-yl)methyl)piperidin-4-ylidene)-N-(3,4-dimethoxyphenyl)acetamide]
234 to 236 °C | 320 nM | 91.4% | CC(=O)Nc1ncc(CN2CCC(C(=O)Nc3ccc4ncccc4c3)CC2)s1 [Compound B-6, 1-((2-acetamidothiazol-5 yl)methyl)-N-(quinolin-6-yl)piperidine-4-carboxamide]
222 to 224 °C |  | 97.7% | CC(=O)Nc1ncc(CN2CCC(=CC(=O)NC3CCCCC3)CC2)s1 [Compound C-8, 2-(1-((2-acetamidothiazol-5-yl)methyl)piperidin-4-ylidene)-N-cyclohexylacetamide]
225 to 228 °C | 140 nM | 97.3% | CC(=O)Nc1ncc(CN2CCC(=CC(=O)Nc3ccc(Cl)cc3)CC2)s1 [Compound C-3, 2-(1-((2-acetamidothiazol-5-yl)methyl)piperidin-4-ylidene)-N-(4-chlorophenyl)acetamide]
215 to 217 °C | 60 nM | 98.9% | CC(=O)Nc1ncc(CN2CCC(C(=O)OC(C)c3ccc4c(c3)OCO4)CC2)s1 (stereo not shown) [Compound B-13, 1-(benzo[d][1,3]dioxol-5 yl)ethyl 1-((2-acetamidothiazol-5-yl)methyl)piperidine-4-carboxylate]
234 to 236 °C | 240 nM | 96.4% | CC(=O)Nc1ncc(CN2CCCC(C(=O)Nc3ccc(C(C)C)cc3)C2)s1 (stereo not shown) [Compound B-18, 1-((2-acetamidothiazol-5-yl)methyl)-N-(4-isopropylphenyl)piperidine-3-carboxamide]
 | 830 nM | 93.3% | CC(=O)Nc1ncc(CN2CCC(C(=O)NC(C)c3ccc(C)cc3)CC2)s1 (stereo not shown) [Compound B-11, 1-((2-acetamidothiazol-5-yl)methyl)-N-(1-(p-tolyl)ethyl)piperidine-4-carboxamide]
 | 250 nM | 96.8% | CC(=O)Nc1ncc(CN2CCC(C(=O)NC(C)c3ccc4ccccc4c3)CC2)s1 (stereo not shown) [Compound B-12, 1-((2-acetamidothiazol-5 yl)methyl)-N-(1-(naphthalen-2-yl)ethyl)piperidine-4-carboxamide]
